Experiments:
Type in all cases: in vivo
[1] = system: barnyardgrass (Echinochloa crus-galli); assay: Test A preemergence, barnyardgrass; conditions: 0 to 100 scale (0 no effect, 100 complete control)
In short: (§1)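 Greenhouse pot test in loam/sand soil. Pre: directed soil spray after seeding. Post: 1–2-leaf plants, 2–10 cm. Formulation: non-phytotoxic solvent + surfactant. Visual rating vs untreated controls at ~10 d, 0 (no effect) to 100 (complete control).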

kochia (Kochia scoparia) [2] = assay: Test A preemergence, kochia; conditions: 0 to 100 scale (0 no effect, 100 complete control)
In short: as §1

[3] = system: ragweed (common ragweed, Ambrosia elatior); assay: Test A preemergence, ragweed; conditions: 0 to 100 scale (0 no effect, 100 complete control)
In short: as §1

[4] = system: ryegrass, Italian (Lolium multiflorum); assay: Test A preemergence, Italian ryegrass; conditions: 0 to 100 scale (0 no effect, 100 complete control)
In short: as §1

[5] = system: foxtail, giant (Setaria faberii); assay: Test A preemergence, giant foxtail; conditions: 0 to 100 scale (0 no effect, 100 complete control)
In short: as §1

[6] = system: pigweed (Amaranthus retroflexus); assay: Test A preemergence, pigweed; conditions: 0 to 100 scale (0 no effect, 100 complete control)
In short: as §1

[7] = system: barnyardgrass (Echinochloa crus-galli); assay: Test A postemergence, barnyardgrass; conditions: visual injury, 0 to 100 scale (0 no effect, 100 complete control), approximately 10 days
In short: as §1

kochia (Kochia scoparia) [8] = assay: Test A postemergence, kochia; conditions: visual injury, 0 to 100 scale (0 no effect, 100 complete control), approximately 10 days
In short: as §1

[9] = system: ragweed (common ragweed, Ambrosia elatior); assay: Test A postemergence, ragweed; conditions: visual injury, 0 to 100 scale (0 no effect, 100 complete control), approximately 10 days
In short: as §1

[10] = system: ryegrass, Italian (Lolium multiflorum); assay: Test A postemergence, Italian ryegrass; conditions: visual injury, 0 to 100 scale (0 no effect, 100 complete control), approximately 10 days
In short: as §1

[11] = system: foxtail, giant (Setaria faberii); assay: Test A postemergence, giant foxtail; conditions: visual injury, 0 to 100 scale (0 no effect, 100 complete control), approximately 10 days
In short: as §1

[12] = system: pigweed (Amaranthus retroflexus); assay: Test A postemergence, pigweed; conditions: visual injury, 0 to 100 scale (0 no effect, 100 complete control), approximately 10 days
In short: as §1

[13] = system: blackgrass (Alopecurus myosuroides); assay: Test A postemergence, blackgrass; conditions: visual injury, 0 to 100 scale (0 no effect, 100 complete control), approximately 10 days
In short: as §1

[14] = system: galium (catchweed bedstraw, Galium aparine); assay: Test A postemergence, galium; conditions: visual injury, 0 to 100 scale (0 no effect, 100 complete control), approximately 10 days
In short: as §1

[15] = system: wheat (Triticum aestivum); assay: Test A postemergence, wheat; conditions: visual injury, 0 to 100 scale (0 no effect, 100 complete control), approximately 10 days
In short: as §1

corn (Zea mays) = assay: Test A postemergence, corn; conditions: visual injury, 0 to 100 scale (0 no effect, 100 complete control), approximately 10 days
In short: as §1

rice (Oryza sativa) = assay: Test B flooded paddy test, rice; conditions: 250 g ai/ha, applied to paddy water, visual rating after 13 to 15 days, scale 0 (no effect) to 100 (complete control)
In short: (§2)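 Compound was added to standing water 3 cm above soil, flood maintained, and plants held in a greenhouse before visual scoring against controls at 13 to 15 days.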

[16] = system: sedge, umbrella (small-flower umbrella sedge, Cyperus difformis); assay: Test B flooded paddy test, umbrella sedge; conditions: 250 g ai/ha, applied to paddy water, visual rating after 13 to 15 days, scale 0 (no effect) to 100 (complete control)
In short: as §2

[17] = system: ducksalad (Heteranthera limosa); assay: Test B flooded paddy test, ducksalad; conditions: 250 g ai/ha, applied to paddy water, visual rating after 13 to 15 days, scale 0 (no effect) to 100 (complete control)
In short: as §2

[18] = system: barnyardgrass (Echinochloa crus-galli); assay: Test B flooded paddy test, barnyardgrass; conditions: 250 g ai/ha, applied to paddy water, visual rating after 13 to 15 days, scale 0 (no effect) to 100 (complete control)
In short: as §2

CN1CC(c2cccc(Oc3ccc(F)cc3)c2)C(C(=O)Nc2cccc(F)c2F)C1=O (single isomer, unassigned) [Compound 46]
70: Plant response rating, Barnyardgrass ([1]; 125 g ai/ha) | Plant response rating, Pigweed ([6]; 500 g ai/ha) | Plant response rating, Foxtail, Giant ([11]; 125 g ai/ha) | Plant response rating, Pigweed ([12]; 500 g ai/ha) | Plant response rating, Galium ([14]; 500 g ai/ha)
0: Plant response rating, Kochia (kochia (Kochia scoparia) [2]; 125 g ai/ha) | Plant response rating, Ragweed ([3]; 125 g ai/ha) | Plant response rating, Ragweed ([9]; 125 g ai/ha) | Plant response rating, Ragweed ([9]; 500 g ai/ha) | Plant response rating, Ryegrass, Italian ([10]; 125 g ai/ha) | Plant response rating, Blackgrass ([13]; 125 g ai/ha) | Plant response rating, Wheat ([15]; 125 g ai/ha) | Plant response rating, Rice (Flood) (rice (Oryza sativa)) | Plant response rating, Sedge, Umbrella (Flood) [16] | Plant response rating, Barnyardgrass (Flood) [18]
40: Plant response rating, Pigweed ([6]; 125 g ai/ha) | Plant response rating, Kochia (kochia (Kochia scoparia) [8]; 125 g ai/ha) | Plant response rating, Corn (corn (Zea mays); 125 g ai/ha)
50: Plant response rating, Pigweed ([12]; 125 g ai/ha) | Plant response rating, Corn (corn (Zea mays); 500 g ai/ha)
90: Plant response rating, Foxtail, Giant ([5]; 125 g ai/ha) | Plant response rating, Foxtail, Giant ([5]; 500 g ai/ha) | Plant response rating, Barnyardgrass ([7]; 125 g ai/ha) | Plant response rating, Barnyardgrass ([7]; 500 g ai/ha)
30: Plant response rating, Ragweed ([3]; 500 g ai/ha) | Plant response rating, Ryegrass, Italian ([10]; 500 g ai/ha) | Plant response rating, Blackgrass ([13]; 500 g ai/ha) | Plant response rating, Ducksalad (Flood) [17]
20: Plant response rating, Kochia (kochia (Kochia scoparia) [2]; 500 g ai/ha) | Plant response rating, Ryegrass, Italian ([4]; 125 g ai/ha) | Plant response rating, Wheat ([15]; 500 g ai/ha)
60: Plant response rating, Kochia (kochia (Kochia scoparia) [8]; 500 g ai/ha) | Plant response rating, Galium ([14]; 125 g ai/ha)
80: Plant response rating, Barnyardgrass ([1]; 500 g ai/ha) | Plant response rating, Ryegrass, Italian ([4]; 500 g ai/ha) | Plant response rating, Foxtail, Giant ([11]; 500 g ai/ha)

O=C1NCC(c2cccc(Oc3ccc(C(F)(F)F)cn3)c2)C1C(=O)Nc1cccc(F)c1F (single isomer, unassigned) [Compound 47]
70: Plant response rating, Ryegrass, Italian ([4]; 500 g ai/ha) | Plant response rating, Barnyardgrass ([7]; 125 g ai/ha) | Plant response rating, Pigweed ([12]; 500 g ai/ha) | Plant response rating, Galium ([14]; 500 g ai/ha)
50: Plant response rating, Barnyardgrass ([1]; 125 g ai/ha) | Plant response rating, Pigweed ([6]; 500 g ai/ha)
90: Plant response rating, Foxtail, Giant ([5]; 125 g ai/ha) | Plant response rating, Foxtail, Giant ([5]; 500 g ai/ha) | Plant response rating, Barnyardgrass ([7]; 500 g ai/ha)
20: Plant response rating, Blackgrass ([13]; 500 g ai/ha) | Plant response rating, Corn (corn (Zea mays); 125 g ai/ha)
80: Plant response rating, Barnyardgrass ([1]; 500 g ai/ha) | Plant response rating, Foxtail, Giant ([11]; 500 g ai/ha) | Plant response rating, Corn (corn (Zea mays); 500 g ai/ha)
30: Plant response rating, Ryegrass, Italian ([10]; 500 g ai/ha) | Plant response rating, Wheat ([15]; 500 g ai/ha)
60: Plant response rating, Ragweed ([3]; 500 g ai/ha) | Plant response rating, Kochia (kochia (Kochia scoparia) [8]; 500 g ai/ha) | Plant response rating, Foxtail, Giant ([11]; 125 g ai/ha) | Plant response rating, Pigweed ([12]; 125 g ai/ha) | Plant response rating, Galium ([14]; 125 g ai/ha)
0: Plant response rating, Kochia (kochia (Kochia scoparia) [2]; 125 g ai/ha) | Plant response rating, Kochia (kochia (Kochia scoparia) [2]; 500 g ai/ha) | Plant response rating, Ragweed ([3]; 125 g ai/ha) | Plant response rating, Ryegrass, Italian ([4]; 125 g ai/ha) | Plant response rating, Pigweed ([6]; 125 g ai/ha) | Plant response rating, Kochia (kochia (Kochia scoparia) [8]; 125 g ai/ha) | Plant response rating, Ragweed ([9]; 125 g ai/ha) | Plant response rating, Ragweed ([9]; 500 g ai/ha) | Plant response rating, Ryegrass, Italian ([10]; 125 g ai/ha) | Plant response rating, Blackgrass ([13]; 125 g ai/ha) | Plant response rating, Wheat ([15]; 125 g ai/ha) | Plant response rating, Rice (Flood) (rice (Oryza sativa)) | Plant response rating, Sedge, Umbrella (Flood) [16] | Plant response rating, Ducksalad (Flood) [17] | Plant response rating, Barnyardgrass (Flood) [18]

— patent publication US10405547B2, “Substituted cyclic amides as herbicides” (FMC Corporation, priority 2015, dated 2019)
